Experimental data reported in patent EP0603240B1, “SAFENING HERBICIDAL PYRAZOLYLSULFONYLUREAS” (priority 1991, dated 1993).

Legend:
corn [1] = test: Example 25, greenhouse preemergence test: Antidote Nos. 1 and 2 against Herbicide Nos. 1-3; assay type: in vivo, Corn (Pioneer 3424 variety); conditions: Zea mays, pre-emergence, Preemergence, no antidote
Summary of the method: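 Greenhouse preemergence application; herbicides as wettable powders, dichlormid as emulsifiable concentrate, naphthalic anhydride as conventional seed coating on corn before planting. Rates in g active ingredient/ha; naphthalic anhydride amount not quantified. Corn injury scored as percent growth inhibition.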

corn [2] = test: Example 4, Procedure I: Antidote Nos. 15 and 16 against Herbicide No. 1; assay type: in vivo
Procedure: (§1) Containers were filled and compacted with a fumigated silt loam top soil to a depth of about 1.3 cm from the top of the container. A first container was designated as an untreated control, a second container was designated as a herbicide control, and a third container was designated as a herbicide + antidote test container. Each of the containers was seeded with a crop species. A measured amount of herbicide dispersed or dissolved in acetone was applied to a measured quantity of soil. To this same quantity of soil treated with herbicide, there was added a measured amount of antidote dispersed or dissolved in acetone. The quantity of soil treated with the herbicide and antidote was thoroughly mixed to incorporate the herbicide and antidote in the soil uniformly. The seed bed in the third container of soil was covered with the soil treated with the herbicide and antidote and the container was leveled. For each test series, the seed beds of the first and second containers were likewise covered by soil layers. the cover layer of the first container was not treated with herbicide or antidote.
(§2) The containers were then placed on a bench in a greenhouse and sub-irrigated as required for the duration of the test. […] Plant response is measured in terms of percent injury. Antidote efficacy is indicated as the difference in plant injury by the herbicide(s) without the antidote and with the antidote.
This example describes tests with Antidote Nos. 15 and 16 to safen Herbicide No. 1 according to Procedure I using corn and the weeds barnyardgrass and velvetleaf as the test plants.

corn [3] = test: Example 15, Procedure II: Herbicide No. 1 + butylate (No. 10) with antidotes; assay type: in vivo
Procedure: as §1, §2
(§3) This procedure is the same as Procedure I, but modified in the manner that after incorporation of the chemicals (herbicide and antidote) the containers with the covered seedbed were treated with an initial overhead irrigation equivalent to 0.6 cm rainfall, then subsequently sub-irrigated as required on greenhouse benches.
This example describes experiments designed to investigate the antidotal efficacy of a plurality of antidotes against the herbicidal action of a combination of Herbicide No. 1 and butylate in corn and the prevalent weeds barnyardgrass and velvetleaf. The antidotes used in these experiments were Nos. 1-10, 12, 13 and 15.
The test procedure used in these experiments was that of Procedure II described above. The antidotes were applied to a soil cover layer by pipet after spraying the herbicides onto the soil, followed by incorporation and overhead irrigation.

corn [4] = test: Example 5, Procedure I: Herbicide No. 1 + alachlor (No. 7) with Antidote Nos. 15 and 16; assay type: in vivo
Summary of the method: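 Greenhouse pot test in silt loam; herbicide No. 1 plus alachlor co-herbicide and antidote, each applied in acetone, mixed into cover soil over seeded beds, sub-irrigated. Percent injury scored; antidote efficacy as injury difference without vs with antidote.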

corn [5] = test: Example 11, Procedure II: Herbicide No. 1 + metazachlor (No. 14) with antidotes; assay type: in vivo
Procedure: as §1, §2, §3
In this example, yet another α-chloroacetanilide co-herbicide, metazachlor (Herbicide No. 14) was combined with Herbicide No. 1 for investigation of the effect of various safeners on that composition. Metazachlor is the active ingredient in the commercial herbicide BUTISAN® S, used here as a 500 g/L formulation.

corn [6] = test: Example 2, Procedure II: dichloroacetamide antidotes against Herbicide No. 1; assay type: in vivo
Procedure: as §1, §2, §3
In this example, a plurality of dichloroacetamide antidotes were tested for their safening efficacy against Herbicide No. 1 in corn, using Procedure II. In this test the weed was velvetleaf; barnyardgrass was not present in this test.

corn [7] = test: Example 12, Procedure II: Herbicide No. 1 + acetochlor (No. 6) with thirteen antidotes; assay type: in vivo
Summary of the method: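 Herbicide and antidote in acetone were mixed into silt loam used to cover the corn seed bed, alongside untreated and herbicide-only controls. After incorporation, an overhead irrigation equal to 0.6 cm rainfall was given, then sub-irrigation in a greenhouse. Injury was scored as percent; safening is the injury difference without versus with antidote.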

[8] = system: barnyardgrass (Echinochloa crusgalli); test: Example 9, Procedure II: Herbicide No. 1 + pretilachlor (No. 13) with antidotes; assay type: in vivo
Procedure: as §1, §2, §3
(§4) In the series of greenhouse tests described below, for routine screening purposes the herbicide/antidote compositions were tested in crop/weed combinations involving corn as the crop and either or both of the weeds barnyardgrass (Echinochloa crusgalli), a monocotyledonous weed, and velvetleaf (Abutilon theophrasti), a dicotyledonous weed. In the tables below, these weeds are indicated by the symbols "BYG" and "VL", respectively.
(§5) In this example the safening effect on a composition comprising Herbicide No. 1 and another leading rice herbicide, i.e., Herbicide No. 13, was investigated using the same antidotes and test procedure described in the preceding example. Herbicide No. 13 is pretilachlor, active ingredient used in the commercial rice herbicides RIFIT®, SOFIT® and SOFIT® SUPER.

[9] = system: velvetleaf (Abutilon theophrasti); test: as above; assay type: in vivo
Procedure: as §1, §2, §3, §4, §5

[10] = Herbicide No.1 0.56 kg/ha alone, no antidote
[11] = Herbicide No.1 1.12 kg/ha alone, no antidote
[12] = Herbicide No.1 0.14 kg/ha + Herbicide No.13 2.24 kg/ha, antidote rate 2.24 kg/ha
[13] = Herbicide No.1 0.14 kg/ha + Herbicide No.13 2.24 kg/ha, antidote rate 8.96 kg/ha
[14] = Herbicide No.1 0.56 kg/ha + Herbicide No.13 2.24 kg/ha, antidote rate 2.24 kg/ha
[15] = Herbicide No.1 0.56 kg/ha + Herbicide No.13 2.24 kg/ha, antidote rate 8.96 kg/ha

## COC(=O)c1c(Cl)nn(C)c1S(=O)(=O)NC(=O)Nc1nc(OC)cc(OC)n1 [Herbicide No. 1]
Corn [1]; herbicide alone 0.25 G/ha, read-out: % Inhibition Corn
  inhibition at 0.25 g/ha: 22.3%
Corn [1]; herbicide alone 0.74 G/ha
  inhibition at 0.74 g/ha: 32.3%
Corn [1]; herbicide alone 2.5 G/ha
  inhibition at 2.5 g/ha: 49.9%
Corn [2]; Herb. No. 1 4.48 kg/ha, no antidote, average of two replicates
  % Injury Corn: 85%
Corn [2]; Herb. No. 1 6.72 kg/ha, no antidote, average of two replicates
  % Injury Corn: 90%
Corn [3]; [10]
  % Injury Corn: 20%
Corn [3]; [11]
  % Injury Corn: 20%
Corn [4]; Herbicide No.1 4.48 + No.7 0.56 kg/ha, no antidote
  % Injury Corn: 95%
Corn [4]; Herbicide No.1 4.48 + No.7 2.24 kg/ha, no antidote
  % Injury Corn: 95%
Corn [4]; Herbicide No.1 6.72 + No.7 0.56 kg/ha, no antidote
  % Injury Corn: 93%
Corn [4]; Herbicide No.1 6.72 + No.7 (alachlor) 2.24 kg/ha, no antidote
  % Injury Corn: 95%
Corn [5]; [10]
  % Injury Corn: 65%
Corn [5]; [11]
  % Injury Corn: 65%
Corn [6]; Herb. No. 1 0.14 kg/ha, no antidote
  % Injury Corn: 10%
Corn [7]; Herbicide No. 1 0.56 kg/ha + Herbicide No. 6 2.24 kg/ha, without an antidote
  combined corn injury: 45%
Corn [7]; Herbicide No. 1 0.56 kg/ha, without an antidote
  injury to corn: 20%
Corn [7]; Herbicide No.1 0.14 kg/ha alone, no antidote
  % Injury Corn: 15%
Corn [7]; [10]
  % Injury Corn: 20%

## CC1(C)OC(c2ccco2)CN1C(=O)C(Cl)Cl (stereo not shown) [compound 15]
[8]; [12]
  % Injury BYG: 100%
[8]; [13]
  % Injury BYG: 100%
[8]; [14]
  % Injury BYG: 99%
[8]; [15]
  % Injury BYG: 100%
[9]; [12]
  % Injury VL: 60%
[9]; [13]
  % Injury VL: 90%
[9]; [14]
  % Injury VL: 85%
[9]; [15]
  % Injury VL: 75%
Corn [2]; Herb. No. 1 6.72 kg/ha + antidote 0.56 kg/ha
  % Injury Corn: 35%
Corn [2]; Herb. No. 1 6.72 kg/ha + antidote 2.24 kg/ha
  % Injury Corn: 50%
Corn [3]; Herbicide No.1 0.56 kg/ha + Herbicide No.10 6.72 kg/ha, antidote rate 2.24 kg/ha
  % Injury Corn: 20%
Corn [3]; Herbicide No.1 0.56 kg/ha + Herbicide No.10 6.72 kg/ha, antidote rate 8.96 kg/ha
  % Injury Corn: 10%
Corn [3]; Herbicide No.1 1.12 kg/ha + Herbicide No.10 6.72 kg/ha, antidote rate 2.24 kg/ha
  % Injury Corn: 15%
Corn [3]; Herbicide No.1 1.12 kg/ha + Herbicide No.10 6.72 kg/ha, antidote rate 8.96 kg/ha
  % Injury Corn: 15%
Corn [4]; Herbicide No.1 4.48 + No.7 0.56 kg/ha + antidote 0.56 kg/ha
  % Injury Corn: 23%
Corn [4]; Herbicide No.1 4.48 + No.7 0.56 kg/ha + antidote 2.24 kg/ha
  % Injury Corn: 40%
Corn [4]; Herbicide No.1 4.48 + No.7 2.24 kg/ha + antidote 0.56 kg/ha
  % Injury Corn: 30%
Corn [4]; Herbicide No.1 4.48 + No.7 2.24 kg/ha + antidote 2.24 kg/ha
  % Injury Corn: 23%
Corn [4]; Herbicide No.1 6.72 + No.7 0.56 kg/ha + antidote 0.56 kg/ha
  % Injury Corn: 25%
Corn [4]; Herbicide No.1 6.72 + No.7 0.56 kg/ha + antidote 2.24 kg/ha
  % Injury Corn: 25%
Corn [4]; Herbicide No.1 6.72 + No.7 2.24 kg/ha + antidote 0.56 kg/ha
  % Injury Corn: 45%
Corn [4]; Herbicide No.1 6.72 + No.7 2.24 kg/ha + antidote 2.24 kg/ha
  % Injury Corn: 50%
Corn [5]; Herbicide No.1 0.56 kg/ha + Herbicide No.14 3.36 kg/ha, antidote rate 2.24 kg/ha
  % Injury Corn: 65%
Corn [5]; Herbicide No.1 0.56 kg/ha + Herbicide No.14 3.36 kg/ha, antidote rate 8.96 kg/ha
  % Injury Corn: 65%
Corn [5]; Herbicide No.1 1.12 kg/ha + Herbicide No.14 3.36 kg/ha, antidote rate 2.24 kg/ha
  % Injury Corn: 25%
Corn [5]; Herbicide No.1 1.12 kg/ha + Herbicide No.14 3.36 kg/ha, antidote rate 8.96 kg/ha
  % Injury Corn: 40%
Corn [6]; Herb. No. 1 0.14 kg/ha + antidote 0.56 kg/ha
  % Injury Corn: 5%
Corn [7]; Herbicide No.1 0.14 kg/ha + Herbicide No.6 2.24 kg/ha, antidote rate 2.24 kg/ha
  % Injury Corn: 15%
Corn [7]; Herbicide No.1 0.14 kg/ha + Herbicide No.6 2.24 kg/ha, antidote rate 8.96 kg/ha
  % Injury Corn: 10%
Corn [7]; Herbicide No.1 0.56 kg/ha + Herbicide No.6 2.24 kg/ha, antidote rate 2.24 kg/ha
  % Injury Corn: 20%
Corn [7]; Herbicide No.1 0.56 kg/ha + Herbicide No.6 2.24 kg/ha, antidote rate 8.96 kg/ha
  % Injury Corn: 5%
